Experiments:
Test in all cases: KinomeScan profiling
Type in all cases: binding
[1] = molecular target: PDGFRB (Homo sapiens, UniProt P09619); details: read-out: % control
Outline: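 1 μM cpd in DMSO; 468-kinase panel; readout RLU. % ctrl = (cpd − pos ctrl)/(neg ctrl − pos ctrl) ×100. Pos ctrl = 0%, DMSO = 100%. Hit cut-off <35%.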

[2] = molecular target: T1, PIM2 (Homo sapiens, UniProt Q9P1W9); details: PIM2, 1 μM; read-out: % control
T1 construct: purchased KinomeScan® (panel service)
Outline: (§1)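 Test agents were profiled at a single concentration of 1 μM (DMSO vehicle) on a near-complete set of 468 kinases. Signal is reported relative to vehicle (100%) and a fully displacing control (0%).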

[3] = molecular target: T2, ERK8 (Homo sapiens, UniProt Q8TD08); details: ERK8, 1 μM; read-out: % control
T2 sequence (Q8TD08 1-544): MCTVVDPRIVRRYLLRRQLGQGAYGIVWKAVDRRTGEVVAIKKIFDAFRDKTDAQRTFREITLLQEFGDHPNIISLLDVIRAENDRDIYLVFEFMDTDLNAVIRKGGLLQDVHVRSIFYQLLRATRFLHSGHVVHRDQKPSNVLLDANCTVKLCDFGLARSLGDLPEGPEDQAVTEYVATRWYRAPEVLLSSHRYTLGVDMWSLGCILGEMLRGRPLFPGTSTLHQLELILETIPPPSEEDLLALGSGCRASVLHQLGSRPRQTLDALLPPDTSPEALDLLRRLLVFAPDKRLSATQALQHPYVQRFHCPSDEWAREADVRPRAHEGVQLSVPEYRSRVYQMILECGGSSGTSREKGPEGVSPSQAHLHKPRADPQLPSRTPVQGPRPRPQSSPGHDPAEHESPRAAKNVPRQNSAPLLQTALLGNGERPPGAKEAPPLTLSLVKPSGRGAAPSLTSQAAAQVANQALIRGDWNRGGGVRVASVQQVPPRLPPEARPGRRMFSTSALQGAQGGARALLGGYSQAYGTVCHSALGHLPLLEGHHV
Outline: as §1

[4] = molecular target: T3, TTK (Homo sapiens, UniProt P33981); details: read-out: % control
T3 sequence (P33981 1-857): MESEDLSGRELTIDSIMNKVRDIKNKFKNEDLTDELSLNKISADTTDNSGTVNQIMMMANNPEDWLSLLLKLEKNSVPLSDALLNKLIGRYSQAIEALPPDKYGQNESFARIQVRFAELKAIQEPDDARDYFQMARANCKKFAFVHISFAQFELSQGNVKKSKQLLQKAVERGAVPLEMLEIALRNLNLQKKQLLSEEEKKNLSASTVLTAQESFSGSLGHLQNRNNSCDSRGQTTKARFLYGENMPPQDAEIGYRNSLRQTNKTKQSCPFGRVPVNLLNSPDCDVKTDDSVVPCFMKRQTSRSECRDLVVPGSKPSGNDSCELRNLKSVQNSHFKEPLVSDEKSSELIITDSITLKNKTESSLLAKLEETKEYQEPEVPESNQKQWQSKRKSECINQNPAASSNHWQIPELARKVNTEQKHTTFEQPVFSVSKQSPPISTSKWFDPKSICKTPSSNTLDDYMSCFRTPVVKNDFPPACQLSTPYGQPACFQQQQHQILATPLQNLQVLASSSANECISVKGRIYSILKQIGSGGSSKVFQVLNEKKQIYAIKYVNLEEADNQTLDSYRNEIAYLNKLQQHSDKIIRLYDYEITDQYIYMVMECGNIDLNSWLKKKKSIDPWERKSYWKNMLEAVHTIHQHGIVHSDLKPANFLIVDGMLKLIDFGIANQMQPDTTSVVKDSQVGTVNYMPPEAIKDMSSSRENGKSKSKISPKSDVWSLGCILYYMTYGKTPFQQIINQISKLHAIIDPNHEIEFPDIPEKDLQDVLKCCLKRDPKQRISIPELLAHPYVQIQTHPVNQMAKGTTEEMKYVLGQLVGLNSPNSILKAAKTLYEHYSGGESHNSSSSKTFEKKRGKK
Outline: as §1

[5] = molecular target: T4, GRK3 (Homo sapiens, UniProt P35626); details: GRK3, 1 μM; read-out: % control
T4 sequence (P35626 1-688): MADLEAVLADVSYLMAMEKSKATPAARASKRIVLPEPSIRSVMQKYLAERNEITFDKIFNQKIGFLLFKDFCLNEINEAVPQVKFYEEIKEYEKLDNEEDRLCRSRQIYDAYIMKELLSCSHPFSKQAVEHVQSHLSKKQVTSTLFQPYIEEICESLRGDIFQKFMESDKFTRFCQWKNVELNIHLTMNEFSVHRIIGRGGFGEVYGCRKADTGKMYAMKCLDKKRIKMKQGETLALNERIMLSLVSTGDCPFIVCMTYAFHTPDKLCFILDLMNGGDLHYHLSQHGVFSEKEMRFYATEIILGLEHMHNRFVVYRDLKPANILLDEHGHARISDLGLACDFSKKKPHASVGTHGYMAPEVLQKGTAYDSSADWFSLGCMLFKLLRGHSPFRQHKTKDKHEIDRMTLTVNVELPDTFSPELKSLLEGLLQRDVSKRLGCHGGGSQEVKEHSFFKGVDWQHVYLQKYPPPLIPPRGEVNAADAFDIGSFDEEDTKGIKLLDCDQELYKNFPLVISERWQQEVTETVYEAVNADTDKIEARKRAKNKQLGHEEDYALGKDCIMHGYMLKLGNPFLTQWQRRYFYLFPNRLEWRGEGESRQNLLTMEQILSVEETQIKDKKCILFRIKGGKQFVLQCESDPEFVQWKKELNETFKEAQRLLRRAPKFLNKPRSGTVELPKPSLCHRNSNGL
Outline: as §1

[6] = molecular target: MLK1 (Homo sapiens, UniProt P80192); details: MLK1, 1 μM; read-out: % control
Outline: as §1

[7] = molecular target: EPHA5 (Homo sapiens, UniProt P54756); details: EPHA5, 1 μM; read-out: % control
Outline: as §1

EPHA5, sequence (P54756 25-1037): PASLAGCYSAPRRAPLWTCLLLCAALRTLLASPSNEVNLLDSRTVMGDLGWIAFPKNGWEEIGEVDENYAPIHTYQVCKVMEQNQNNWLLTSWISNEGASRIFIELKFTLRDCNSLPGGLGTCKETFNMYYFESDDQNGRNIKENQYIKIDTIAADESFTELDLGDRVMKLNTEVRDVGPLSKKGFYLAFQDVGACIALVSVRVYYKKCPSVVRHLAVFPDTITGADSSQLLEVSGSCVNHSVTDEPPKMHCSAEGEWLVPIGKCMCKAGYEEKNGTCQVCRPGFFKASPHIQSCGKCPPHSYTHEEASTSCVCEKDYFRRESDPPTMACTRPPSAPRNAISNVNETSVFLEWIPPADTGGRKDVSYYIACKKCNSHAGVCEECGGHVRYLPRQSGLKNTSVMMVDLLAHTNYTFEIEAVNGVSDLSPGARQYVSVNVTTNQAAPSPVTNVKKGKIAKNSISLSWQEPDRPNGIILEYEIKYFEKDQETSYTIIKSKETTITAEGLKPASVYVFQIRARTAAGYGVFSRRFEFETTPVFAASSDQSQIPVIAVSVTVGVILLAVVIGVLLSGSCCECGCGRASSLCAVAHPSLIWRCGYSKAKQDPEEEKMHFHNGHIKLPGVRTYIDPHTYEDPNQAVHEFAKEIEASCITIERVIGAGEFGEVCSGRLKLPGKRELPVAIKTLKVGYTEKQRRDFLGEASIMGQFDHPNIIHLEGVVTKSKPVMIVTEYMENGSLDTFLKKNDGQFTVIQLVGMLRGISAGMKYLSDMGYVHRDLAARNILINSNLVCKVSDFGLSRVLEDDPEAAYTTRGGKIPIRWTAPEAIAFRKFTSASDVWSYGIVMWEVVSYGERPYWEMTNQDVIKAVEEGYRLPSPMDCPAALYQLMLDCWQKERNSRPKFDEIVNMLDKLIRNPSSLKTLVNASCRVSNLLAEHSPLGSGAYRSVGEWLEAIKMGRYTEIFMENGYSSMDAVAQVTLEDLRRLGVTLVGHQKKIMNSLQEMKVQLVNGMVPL
T1 sequence (Q9P1W9 whole entry): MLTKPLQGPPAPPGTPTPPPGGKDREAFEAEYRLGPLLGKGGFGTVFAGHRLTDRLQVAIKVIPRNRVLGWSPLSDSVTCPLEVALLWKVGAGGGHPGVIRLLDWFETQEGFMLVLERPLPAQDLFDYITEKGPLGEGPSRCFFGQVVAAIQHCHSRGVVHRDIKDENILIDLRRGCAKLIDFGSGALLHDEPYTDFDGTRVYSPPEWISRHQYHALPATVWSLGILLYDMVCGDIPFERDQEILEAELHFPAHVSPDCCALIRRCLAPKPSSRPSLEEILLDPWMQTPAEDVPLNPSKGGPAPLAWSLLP
PDGFRB, sequence (P09619 33-1106): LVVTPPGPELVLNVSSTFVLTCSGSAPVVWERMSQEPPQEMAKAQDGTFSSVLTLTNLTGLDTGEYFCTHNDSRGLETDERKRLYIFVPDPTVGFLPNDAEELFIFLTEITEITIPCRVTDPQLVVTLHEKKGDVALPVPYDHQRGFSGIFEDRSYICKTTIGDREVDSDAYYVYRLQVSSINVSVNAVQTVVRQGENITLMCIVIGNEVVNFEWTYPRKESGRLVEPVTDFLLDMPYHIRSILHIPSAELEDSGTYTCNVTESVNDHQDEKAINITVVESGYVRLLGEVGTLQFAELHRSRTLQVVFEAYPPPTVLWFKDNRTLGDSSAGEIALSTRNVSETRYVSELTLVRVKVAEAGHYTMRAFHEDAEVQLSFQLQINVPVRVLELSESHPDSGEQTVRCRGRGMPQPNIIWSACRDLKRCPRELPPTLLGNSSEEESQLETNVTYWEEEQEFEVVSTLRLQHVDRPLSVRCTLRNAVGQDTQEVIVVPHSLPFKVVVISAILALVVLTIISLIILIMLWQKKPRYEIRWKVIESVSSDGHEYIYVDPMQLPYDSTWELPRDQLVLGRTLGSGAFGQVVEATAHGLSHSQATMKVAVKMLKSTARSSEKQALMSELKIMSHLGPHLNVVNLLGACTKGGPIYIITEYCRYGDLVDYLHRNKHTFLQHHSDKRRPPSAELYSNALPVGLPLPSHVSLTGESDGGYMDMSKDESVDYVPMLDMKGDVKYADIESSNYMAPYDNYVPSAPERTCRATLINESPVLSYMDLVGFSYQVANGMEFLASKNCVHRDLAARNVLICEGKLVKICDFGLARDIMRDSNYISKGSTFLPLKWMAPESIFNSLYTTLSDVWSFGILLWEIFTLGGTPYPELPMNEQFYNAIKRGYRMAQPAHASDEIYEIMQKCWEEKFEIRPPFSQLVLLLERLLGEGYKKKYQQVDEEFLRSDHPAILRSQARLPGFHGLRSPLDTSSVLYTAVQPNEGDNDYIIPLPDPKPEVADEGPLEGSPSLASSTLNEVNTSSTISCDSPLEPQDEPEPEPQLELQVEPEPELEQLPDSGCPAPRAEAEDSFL
MLK1, sequence (P80192 whole entry): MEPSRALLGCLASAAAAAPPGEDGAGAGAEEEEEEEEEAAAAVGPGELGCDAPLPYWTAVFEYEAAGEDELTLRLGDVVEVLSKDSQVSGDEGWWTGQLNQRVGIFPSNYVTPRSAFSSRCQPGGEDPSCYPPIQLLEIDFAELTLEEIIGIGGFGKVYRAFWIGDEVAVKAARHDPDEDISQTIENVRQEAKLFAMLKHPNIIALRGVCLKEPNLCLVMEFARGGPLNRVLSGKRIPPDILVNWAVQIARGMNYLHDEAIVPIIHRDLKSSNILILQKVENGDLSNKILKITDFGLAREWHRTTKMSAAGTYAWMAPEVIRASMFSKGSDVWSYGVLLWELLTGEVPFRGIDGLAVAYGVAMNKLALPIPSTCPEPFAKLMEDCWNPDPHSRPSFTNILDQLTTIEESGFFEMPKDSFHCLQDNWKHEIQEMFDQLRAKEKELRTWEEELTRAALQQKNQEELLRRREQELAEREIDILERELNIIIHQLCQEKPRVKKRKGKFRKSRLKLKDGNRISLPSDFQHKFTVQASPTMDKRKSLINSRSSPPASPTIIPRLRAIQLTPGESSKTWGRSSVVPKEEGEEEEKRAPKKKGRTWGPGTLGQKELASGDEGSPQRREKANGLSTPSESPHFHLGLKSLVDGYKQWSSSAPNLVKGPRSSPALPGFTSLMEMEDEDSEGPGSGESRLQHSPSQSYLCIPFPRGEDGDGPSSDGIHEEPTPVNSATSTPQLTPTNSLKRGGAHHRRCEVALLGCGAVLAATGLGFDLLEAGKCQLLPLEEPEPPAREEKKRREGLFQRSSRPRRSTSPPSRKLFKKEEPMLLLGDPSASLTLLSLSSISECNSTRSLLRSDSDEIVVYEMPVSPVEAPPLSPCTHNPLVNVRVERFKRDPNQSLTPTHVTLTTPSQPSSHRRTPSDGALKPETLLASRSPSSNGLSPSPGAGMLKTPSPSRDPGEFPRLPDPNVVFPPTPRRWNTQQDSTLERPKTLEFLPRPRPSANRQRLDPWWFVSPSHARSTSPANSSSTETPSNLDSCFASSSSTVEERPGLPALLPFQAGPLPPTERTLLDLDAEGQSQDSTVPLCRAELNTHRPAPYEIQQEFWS

SMILES	remaining binding at 1 µM [1] [%]	remaining binding at 1 µM [2] [%]	remaining binding at 1 µM [3] [%]	remaining binding at 1 µM [4] [%]	remaining binding at 1 µM [5] [%]	remaining binding at 1 µM [6] [%]	remaining binding at 1 µM [7] [%]
O=C(c1ccc(-c2cnc3[nH]cc(Cl)c3c2NC2CCCC2)cc1)N1CCC(N2CCOCC2)CC1 [Compound 101, (4-(3-chloro-4-(cyclopentylamino)-1H-pyrrolo[2,3-b]pyridin-5-yl)phenyl)(4-morpholinopiperidin-1-yl)methanone]	83	94	91	54	94	96	98
CNc1c(-c2cnn([C@H]3CCN(C(C)=O)C[C@@H]3F)c2)cnc2[nH]cc(Cl)c12 [Compound 77, 1-((3S,4S)-4-(4-(3-chloro-4-(methylamino)-1H-pyrrolo[2,3-b]pyridin-5-yl)-1H-pyrazol-1-yl)-3-fluoropiperidin-1-yl)ethan-1-one]	20	100	92	34	93	91	96
CNc1c(-c2ccc(C(=O)N3CCC(N4CCOCC4)CC3)cc2)cnc2[nH]cc(Cl)c12 [Compound 96, (4-(3-chloro-4-(methylamino)-1H-pyrrolo[2,3-b]pyridin-5-yl)phenyl)(4-morpholinopiperidin-1-yl)methanone]	21	100	100	3.6	92	96	100
